The nature of data set [1]: Mequitazine solubilization test (2 g/l in water, HPLC assay). In kind it is physicochemical. On the procedure: In the sense of the present invention, “rate of solubilization” means the percentage of solubilized mequitazine after stirring a mixture of water and mequitazine for 15 minutes at 37° C. A mixture of 2 g/l of mequitazine in water is usually used to measure this rate. This solubilization can be measured by a solubilization test as indicated below.
The mequitazine content in the dissolution solutions is measured by HPLC:
In a 100 ml Erlenmeyer flask, place a test sample equivalent to 100 mg of mequitazine. Add 50 ml of ultrapure water. […] Place under magnetic stirring at 400 rpm in a water bath at 37° C.±2° C. Remove a 2 ml sample under magnetic stirring at 15 minutes. Filter the sample on a 0.45 μm Gelman GHP Acrodisc polypropylene filter. The solution must be limpid. Dilute the sample to 1/200 in a phase: water/acetonitrile (50/50).
Deduce concentration X in μg/ml by following the regression line of the controls.
Calculate the concentration in μg/ml of solubilized mequitazine by multiplying by the inverse of the dilution made (i.e., 200).
The rate of solubility of mequitazine is calculated by dividing the concentration of solubilized mequitazine by the total concentration of mequitazine in the starting solution. […]
The solubility and the rates of solubilization of mequitazine only or mequitazine in physical mixtures are measured as indicated above in the “mequitazine solubilization test”. […]

Data set [2] can be described thus: Bioavailability of mequitazine administered by oral route. The note with it: in vivo. The text has this:
As for many pharmaceutically active ingredients, the absorption of mequitazine administered by oral route takes place in the intestine. […] A very small portion of the mequitazine ingested is in solubilized form, and thus it is absorbed with difficulty through the intestinal barrier.

For orientation: bioavailability means dose-corrected exposure relative to a reference, in per cent. As to `c1ccc2c(c1)Sc1ccccc1N2CC1CN2CCC1CC2` (stereo not drawn) [mequitazine], the figures for the “solubility (in words)” value in data set [1] (acid pH range from 2 to 6) and in data set [1] (pH 9) were “high solubility” and “very low solubility”, respectively. The compound also gave a bioavailability in data set [2] of approximately 0.3%.

The record behind these values is patent US7749982B2, “Complex containing mequitazine, a cyclodextrin and an interaction agent” (Pierre Fabre Medicament, priority 2004, dated 2010).
